Measured values from patent US5126506A, “2',3'-Dideoxy-2'-fluoronucleosides” (Bristol-Myers Company, priority 1990, dated 1992).

Legend:
[1] = tested on: HIV; assay: Inhibition of cytopathic effect (CPE) in HTLV-1 transformed MT-2 cells infected with HIV virus; format: cell-based; details: MT2, 168 h, anti-HIV in vitro, inhibition of CPE measured seven days after infection, read-out: ID50 (50% inhib. conc.)
Experimental: The assays were done in HTLV-1 transformed MT-2 cells infected with HIV virus. Inhibition of cytopathic effect CPE) was measured seven days after infection in comparison with control infected cells (Elaine Kinney-Thomas,(Bioch. Pharm., vol.36,pp 311-316, 1987).

[2] = tested on: HIV; details: cited from earlier work; for anti-HIV activity: statement in words
[3] = compared with ddA; cited from earlier work

| IC50 [1] [µM] | SMILES | also measured |
| --- | --- | --- |
| 4 | Nc1ccn([C@@H]2O[C@H](CO)C[C@@H]2F)c(=O)n1 [Compound 5, 2',3'-Dideoxy-2'-fluoroarabino-cytidine] | – |
| > 100 | Cc1cn([C@@H]2O[C@H](CO)[C@@H](N=[N+]=[N-])[C@@H]2F)c(=O)[nH]c1=O [Compound 17, 2',3'-Dideoxy-2'-fluoroarabino-3'-azido-thymidine] | – |
| > 100 | Cc1cn([C@@H]2O[C@H](CO)C[C@@H]2F)c(=O)[nH]c1=O [Compound 7, 2', 3'-Dideoxy-2'-fluoroarabino-thymidine] | – |

More lines, now with the values behind:

| SMILES | IC50 [1] [µM] | also measured |
| --- | --- | --- |
| Cc1cn([C@@H]2O[C@H](CO)C=C2F)c(=O)[nH]c1=O [Compound 11, 2',3'-Dideoxy-2'3'-didehydro-2'-fluoro-thymidine] | 10 to 100 | – |
| Nc1ncnc2c1ncn2[C@@H]1O[C@H](CO)C[C@@H]1F [Compound C, 6-amino-9-(β-D-2',3'-dideoxy-2'-fluoroarabinofuranosyl)-H-purine] | – | activity and potency against HIV relative to AZT or ddA ([2]; compared with AZT or ddA): about as active and potent as AZT or ddA; anti-HIV activity [2]: active anti-HIV agents |
| Nc1ccn([C@@H]2O[C@H](CO)C=C2F)c(=O)n1 [Compound 16, 2',3'-Dideoxy-2',3'-dehydro-2'-fluoro-cytidine] | 15 to 48 | – |
| Nc1ncnc2c1ncn2[C@@H]1O[C@H](CO)C[C@H]1F [Compound B, 6-amino-(β'D-2',3'-dideoxy-2'-fluororibofuranosyl)-9-H-purine] | – | toxicity relative to ddA [3]: more toxic than ddA; protection against HIV relative to that seen with ddA ([2]; % of protection seen with ddA): 13%; anti-HIV activity [2]: active anti-HIV agents |
